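Growth conditions: 96-well plates. Treatment: test compound, 48 hours, 5 concentrations. Analysis: linear interpolation between bracketing concentrations; unreached endpoints set to highest concentration. At the TGI there is no net growth.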

What all share (assay): NCI-60 cell line screen, 48 h
In assay [1] the test system is SNB-75 CNS.
The subject of assay [2] is HS 578T breast.
In assay [3] the test system is NCI/ADR-RES ovarian.
Assay [4] has as its system MOLT-4 leukemia.
The subject of assay [5] is SN12C renal.
Assay [6] has as its system KM12 colon.
Assay [7] relates to A549 NSCLC.
The test system of assay [8] is SW-620 colon.
Assay [9] has as its system HT29 colon.
Assay [10] relates to SK-MEL-2 melanoma.
The test system of assay [11] is HOP-62 NSCLC.
Assay [12] deals with UACC-257 melanoma.
Assay [13] deals with BT-549 breast.
In assay [14] the test system is IGROV1 ovarian.
Assay [15] deals with U251 CNS.
The test system of assay [16] is MALME-3M melanoma.
The subject of assay [17] is OVCAR-4 ovarian.
The subject of assay [18] is OVCAR-8 ovarian.
Assay [19] concerns RPMI-8226 leukemia.

As to `Cc1cc(C)cc(Nc2nnc3n2S(=O)(=O)c2cc(C#N)c(Cl)cc2S3)c1`, the TGI in assay [1] worked out at 7.56 µM; in [2], 15.8 µM; in assay [3], 6.51 µM; in [4] it was 52 µM; in assay [5] it was 7.15 µM; in assay [6], 4.46 µM. The TGI in assay [7] was 32.9 µM; in assay [8], 4.86 µM; in [9], 4.98 µM; in assay [10], 19.5 µM; in [11] it was 9.25 µM; in [12], 3.32 µM. Moreover, the TGI stood at 5.98 µM in [13]; 1.68 µM in assay [14]; 4.29 µM in assay [15]; 2.92 µM in assay [16]; 22.1 µM in assay [17].

Consider `Cc1oc2nc(N(C)C)nc(Cl)c2c1C`, for which the TGI in [1], in [2], in assay [3], in assay [4], in assay [18] and in assay [5] was above 100 µM each time. For the same molecule, the TGI in assay [6], in [7], in [8], in assay [9], in [10] and in [11] was above 100 µM each time. For the same molecule, the TGI in assay [12], in assay [13], in [19], in assay [14], in [15] and in assay [17] was above 100 µM in each case.

Regarding `N#[O+].O=S(=O)([O-])[O-].[NH2-].[NH2-].[NH2-].[NH2-].[NH2-].[Ru+5]`, the TGI in [1], in [4], in assay [18], in [5], in [6] and in assay [7] was above 100 µM each time. Also, the TGI in assay [8], in [9], in assay [10], in assay [12], in assay [14] and in assay [15] was above 100 µM throughout. The molecule also displayed a TGI in assay [16] of 27.7 µM.

`CCCCCCCCCCCCCCCCCc1cccc(OCOCCOC)c1CO`: the TGI in assay [1], in assay [2], in assay [3], in [4], in assay [18] and in assay [6] was above 100 µM throughout. For the same molecule, the TGI in assay [7], in assay [8], in [9], in assay [10], in [11] and in assay [12] was above 100 µM throughout. The TGI in [13], in assay [19], in [14], in [15], in assay [16] and in assay [17] was above 100 µM in each case.

`CC1=CC(=O)NP(=O)(Oc2ccc(C)cc2)N1` (stereo unspecified): the TGI in [1], in assay [4], in assay [18], in assay [5], in [6] and in [8] was above 100 µM in each case. Moreover, the TGI in assay [9], in [10], in assay [11], in [12], in assay [19] and in [14] was above 100 µM each time. Moreover, the TGI in assay [15], in assay [16] and in [17] was above 100 µM throughout.

Take `COc1cc2c(c(OC)c1OC)-c1ccc(SC)c(=O)cc1C(CC(=O)Oc1ccc([N+](=O)[O-])cc1)C2` (stereo unspecified): the TGI in [1] was 0.68 µM; in [4] it was above 100 µM; in [18], 5.08 µM; in assay [5], above 43.1 µM; in assay [6], 0.489 µM; in [7] it was above 100 µM. Besides, the TGI is above 48.7 µM in [8]; 0.099 µM in [9]; above 48.8 µM in [10]; above 100 µM in assay [11]; above 49.1 µM in [12]; above 63 µM in [19]. Further, the TGI in assay [14] was above 49.2 µM; in [15], 1.43 µM; in assay [16], above 65.2 µM; in [17], above 43.6 µM.

With `COc1ccc(OC)c2c1C(=O)C(Cl)=C(N1CCN(CCOCCO)CC1)C2=O`, the TGI in assay [1] worked out at 29.3 µM; in [2], 38.2 µM; in [3], 59 µM; in assay [4] it was 32.8 µM; in assay [18], 30.9 µM; in assay [5], 25.5 µM. Moreover, the TGI in [6] is 37.2 µM; in assay [7], 39 µM; in assay [8] it was 28.7 µM; in [9], 19.8 µM; in assay [11], 22.7 µM; in [12], 33 µM. Besides, the TGI in assay [13] is 28 µM; in assay [19] it was 26.5 µM; in assay [15], 41.3 µM; in assay [16], 34.9 µM; in assay [17], 32 µM.

Consider `CC(=O)OC1CC2OC(Cc3ccccc32)O1` (stereo unspecified), for which the TGI in [1], in assay [4], in assay [18], in assay [5], in [6] and in assay [7] was above 100 µM each time. The TGI in assay [8], in assay [9], in assay [10], in assay [11], in assay [12] and in assay [19] was above 100 µM each time. For the same molecule, the TGI was above 100 µM in [14], above 100 µM in [15] and 63.7 µM in [16].

As to `CN(C)/N=C(\CCN1CCCC1)CC(c1ccccc1)c1c(O)c2ccccc2oc1=O` (stereo unspecified), the TGI in assay [1], in assay [5], in assay [7], in assay [8], in assay [9] and in [10] was above 100 µM in each case. For the same molecule, the TGI in [11], in [12], in assay [19], in assay [14], in assay [16] and in assay [17] was above 100 µM throughout.

Values taken from PubChem BioAssay (NCI).
